# Reference: ChEMBL document CHEMBL4699558, “Lead optimization of 8-(methylamino)-2-oxo-1,2-dihydroquinolines as bacterial type II topoisomerase inhibitors” (Bioorg Med Chem, 2020)
# What was measured:
# DNA gyrase = DNA gyrase (Escherichia coli, UniProt P0AES4+P0AES6); test: Inhibition of Escherichia coli DNA gyrase by measuring supercoiling activity incubated for 60 mins by fluorescence based assay; format: protein-complex assay
# [1] = Inhibition of Escherichia coli topoisomerase IV by measuring relaxation activity incubated for 30 mins by fluorescence based assay
# Escherichia coli [2] = test: Antibacterial activity against Escherichia coli ATCC 25922 by CLSI method; format: functional
# Escherichia coli [3] = test: Antibacterial activity against Escherichia coli ATCC 25922 in presence of PAbetaN by CLSI method; format: functional
# Staphylococcus aureus [4] = test: Antibacterial activity against Staphylococcus aureus ATCC 29213 by CLSI method; format: functional
# Staphylococcus aureus [5] = test: Antibacterial activity against Methicillin-resistant Staphylococcus aureus by CLSI method; format: functional
SMILES,IC50 (DNA gyrase) [nM],IC50 [1] [nM],MIC (Escherichia coli [2]) [mg/L],MIC (Escherichia coli [3]) [mg/L],MIC (Staphylococcus aureus [4]) [mg/L],MIC50 (Staphylococcus aureus [5]) [mg/L],MIC90 (Staphylococcus aureus [5]) [mg/L]
CCCCCN(C)Cc1cc(C(=O)O)ccc1NC(=O)c1cc2cc(F)cc(NC)c2[nH]c1=O,0.21,41.4,4,≤ 0.03,0.5,,
CNc1cc(F)cc2c(NCCN)c(C(=O)Nc3ccc(C(=O)O)cc3)c(=O)[nH]c12.O=CO,0.94,,> 16,4,> 16,,
CNc1cc(F)cc2c(NCCCN)c(C(=O)Nc3ccc(C(=O)O)cc3)c(=O)[nH]c12.O=CO,0.52,,> 8,2,> 8,,
CNCCc1c(C(=O)Nc2ccc(C(=O)O)cc2)c(=O)[nH]c2c(NC)cc(F)cc12.O=C(O)C(F)(F)F,109,,> 8,> 8,> 8,,
CNc1cc(F)cc2c(O)c(C(=O)Nc3ccc(C(=O)NS(=O)(=O)N(C)C)cc3CN3CCCCC3)c(=O)[nH]c12,4.44,,64,0.06,,,
CNc1cc(F)cc2cc(C(=O)Nc3ccc(C(N)=O)cc3CN(C)C3CCCCC3)c(=O)[nH]c12,2.48,,> 32,≤ 0.03,> 32,,
CNc1cc(F)cc2c(NCC3CCNCC3)c(C(=O)Nc3ccc(C(=O)O)cc3)c(=O)[nH]c12.O=CO,1.31,,> 32,0.5,> 32,,
CNc1cc(F)cc2c(NCCN3CCOCC3)c(C(=O)Nc3ccc(C(=O)O)cc3)c(=O)[nH]c12.O=CO,14.6,,> 64,0.12,32,,
Cc1onc(-c2ccccc2)c1C(=O)N[C@@H]1C(=O)N2[C@@H]1SC(C)(C)[C@@H]2C(=O)O [OXACILLIN],,,,,,> 128,> 128
CNc1cc(F)cc2cc(C(=O)Nc3ccc(C(=O)NCCN)cc3)c(=O)[nH]c12.Cl,9.4,,> 8,> 8,> 8,,
CNc1cc(F)cc2cc(C(=O)Nc3ccc(C(=O)O)cc3CNC3CCCCC3)c(=O)[nH]c12.O=C(O)C(F)(F)F,0.26,,32,0.5,16,,
CNc1cc(F)cc2cc(C(=O)Nc3ccc(C(=O)N(C)CCN4CCOCC4)cc3)c(=O)[nH]c12,6.36,,> 16,0.12,16,,
CNc1cc(F)cc2cc(C(=O)Nc3ccc(C(=O)O)cc3CNCCO)c(=O)[nH]c12.Cl,129,,> 64,2,> 64,,
CNCCNc1c(C(=O)Nc2ccc(C(=O)O)cc2)c(=O)[nH]c2c(NC)cc(F)cc12.O=CO,2.09,,> 16,8,> 16,,
CNc1cc(F)cc2c(N[C@H]3C[C@@H](N)C3)c(C(=O)Nc3ccc(C(=O)O)cc3)c(=O)[nH]c12.O=CO,2.66,,> 32,1,> 32,,
CNc1cc(F)cc2c(NCC3(N)CCC3)c(C(=O)Nc3ccc(C(=O)O)cc3)c(=O)[nH]c12.O=CO,2.15,,> 32,0.25,> 32,,
CNc1cc(F)cc2c(NCC3CNC3)c(C(=O)Nc3ccc(C(=O)O)cc3)c(=O)[nH]c12.O=CO,0.66,,> 16,,> 16,,
CNc1cc(F)cc2cc(C(=O)Nc3ccc(C(=O)O)c(O)c3)c(=O)[nH]c12,2.05,,> 32,1,> 32,,
CNc1cc(F)cc2cc(C(=O)Nc3ccc(CO)cc3CN(C)C3CCCCC3)c(=O)[nH]c12,1.92,,16,0.06,4,,
CNc1cc(F)cc2cc(C(=O)Nc3ccc(C(=O)O)cc3CN(CCN)C3CCCCC3)c(=O)[nH]c12.O=C(O)C(F)(F)F,3.68,,> 64,16,> 64,,
CNCCCc1c(C(=O)Nc2ccc(C(=O)O)cc2)c(=O)[nH]c2c(NC)cc(F)cc12.O=C(O)C(F)(F)F,131,,> 32,> 32,,,
